Assay type in all cases: cell-based
Assay [1] has as its target EP4 subtype of the human PGE2 receptor (Homo sapiens, UniProt P35408). Description: cAMP antagonism test on the human EP4 receptor (HTRF cAMP detection). The conditions noted are these: selectivity towards hEP4, IC50 measured by cAMP antagonism test. The gist of the method:
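Cells expressing human EP4 preincubated 20 min at RT with compound (0.8 nM–16.5 μM), then stimulated with PGE2 (0.3 nM in 3× solution, with IBMX) 60 min at RT. After lysis, cAMP measured by HTRF competition (665/620 nm ratio); antagonism seen as rise in FRET signal.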

Assay [2] addresses T1, human PGD receptor (Homo sapiens, UniProt Q13258).
T1 sequence (Q13258 1-359): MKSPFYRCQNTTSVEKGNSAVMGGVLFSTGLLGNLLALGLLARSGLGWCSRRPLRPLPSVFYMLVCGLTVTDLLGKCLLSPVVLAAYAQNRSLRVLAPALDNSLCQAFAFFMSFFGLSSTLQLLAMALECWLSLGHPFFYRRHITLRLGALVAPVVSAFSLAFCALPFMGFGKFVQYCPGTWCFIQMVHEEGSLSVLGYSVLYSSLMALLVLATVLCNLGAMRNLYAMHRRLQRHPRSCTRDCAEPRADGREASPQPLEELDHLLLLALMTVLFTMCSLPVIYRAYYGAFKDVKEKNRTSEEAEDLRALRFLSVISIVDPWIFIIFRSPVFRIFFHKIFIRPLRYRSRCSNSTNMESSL
Description: cAMP antagonism test on the human prostaglandin D receptor (HTRF cAMP detection). The conditions noted are these: selectivity towards hDP, IC50 measured by cAMP antagonism test. In short, it runs like this: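 Cells pre-mixed with cAMP-d2 were preincubated with compound (0.8 nM–16.5 μM) for 20 min at RT, then stimulated with 3× PGD2 solution (6 nM, in PBS-IBMX) for 30 min at RT. After lysis (20 min), HTRF read at 665/620 nm; antagonism seen as rise in FRET ratio.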
(Time-resolved FRET reads energy transfer from a long-lived donor to a nearby acceptor.)

Assay [3] deals with EP2 subtype of the human PGE2 receptor (Homo sapiens, UniProt P43116). Description: cAMP antagonism test on the human EP2 receptor (HTRF cAMP detection). The conditions noted are these: hEP2 receptor, read-out: Antagonism hEP2 IC50. The gist of the method:
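Cells expressing human EP2 preincubated 20 min at RT with compound (0.8 nM–16.5 μM), then stimulated 60 min with PGE2 (3× solution 1.5 nM) in PBS-IBMX. After 20 min lysis, cAMP measured by competitive HTRF with cAMP-d2 and Eu cryptate anti-cAMP antibody (665/620 nm ratio).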

EP2 subtype of the human PGE2 receptor, sequence (P43116 whole entry): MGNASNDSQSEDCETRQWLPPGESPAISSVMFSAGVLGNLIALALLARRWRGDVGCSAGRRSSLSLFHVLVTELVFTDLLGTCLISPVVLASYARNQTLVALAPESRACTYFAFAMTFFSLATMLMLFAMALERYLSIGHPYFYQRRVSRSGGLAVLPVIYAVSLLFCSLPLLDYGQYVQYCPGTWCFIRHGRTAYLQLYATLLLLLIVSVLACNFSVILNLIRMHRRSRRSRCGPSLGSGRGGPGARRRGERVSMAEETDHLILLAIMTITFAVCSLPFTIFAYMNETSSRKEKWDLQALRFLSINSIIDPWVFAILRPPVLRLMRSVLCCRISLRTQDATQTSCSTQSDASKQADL
EP4 subtype of the human PGE2 receptor, sequence (P35408 whole entry): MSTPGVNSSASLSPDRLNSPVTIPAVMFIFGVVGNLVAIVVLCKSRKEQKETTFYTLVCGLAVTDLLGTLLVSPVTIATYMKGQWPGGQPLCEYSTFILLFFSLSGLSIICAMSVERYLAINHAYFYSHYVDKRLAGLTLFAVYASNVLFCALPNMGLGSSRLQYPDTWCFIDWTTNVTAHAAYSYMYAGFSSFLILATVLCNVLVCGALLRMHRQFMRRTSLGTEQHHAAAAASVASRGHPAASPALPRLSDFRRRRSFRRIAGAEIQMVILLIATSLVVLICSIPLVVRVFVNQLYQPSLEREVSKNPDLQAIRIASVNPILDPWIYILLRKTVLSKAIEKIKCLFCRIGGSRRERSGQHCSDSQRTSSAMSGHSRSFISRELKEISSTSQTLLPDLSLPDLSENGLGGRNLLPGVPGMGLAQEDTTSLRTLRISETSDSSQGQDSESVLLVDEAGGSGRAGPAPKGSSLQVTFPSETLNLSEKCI

One may read the IC50 as the concentration that gives 50% inhibition. Consider `COCCNC(=O)c1ccc2nn(CC3CCN(C(=O)c4ccc(OC(C)C)cc4F)CC3)cc2c1C` [Example 362, 2-{[1-(2-fluoro-4-isopropoxybenzoyl)piperidin-4-yl]methyl}-N-(2-methoxy-ethyl)-4-methyl-2H-indazol-5-carboxamide], for which, in assay [1], the “Selectivity hEP2/hEP4” value was “xxx (xxx > 100)”. For the same compound, the “Selectivity hEP2/hDP” value in assay [2] was “xxx (xxx > 100)”. For the same compound, the IC50 in assay [3] is 15.1 nM.
Regarding `COCCNC(=O)c1ccc2nn(CC3CCN(C(=O)c4ccc(Oc5ccc(Cl)cc5)cc4)CC3)cc2c1C` [Example 14, 2-({1-[4-(4-chloro-phenoxy)benzoyl]-piperidin-4-yl}-methyl)-N-(2-methoxyethyl)-4-methyl-2H-indazol-5-carboxamide], the “Selectivity hEP2/hEP4” value in assay [1] is on record as “xxx (xxx > 100)”. In assay [2], the “Selectivity hEP2/hDP” value is on record as “xxx (xxx > 100)”. Further, the IC50 in assay [3] turned out to be 3.67 nM.
For the compound `COc1c(C(=O)NCCSC(F)(F)F)ccc2nn(CC3CCN(C(=O)c4ccc(Cl)cc4)CC3)cc12` [Example 265, 2-{[1-(4-chlorobenzoyl)piperidin-4-yl]methyl}-4-methoxy-N-{2-[(trifluoromethyl)sulphanyl]ethyl}-2H-indazol-5-carboxamide], the “Selectivity hEP2/hEP4” value in assay [1] is listed as “xxx (xxx > 100)”. Besides, the “Selectivity hEP2/hDP” value in assay [2] is listed as “xxx (xxx > 100)”. The IC50 in assay [3] was 31.5 nM.
Consider `COCCNC(=O)c1ccc2nn(CC3CCN(C(=O)c4ccc(Br)cc4)CC3)cc2c1C` [Example 54, 2-{[1-(4-bromo-benzoyl)piperidin-4-yl]methyl}-N-(2-methoxyethyl)-4-methyl-2H-indazol-5-carboxamide], for which the “Selectivity hEP2/hEP4” value in assay [1] is on record as “xxx (xxx > 100)”. Further, the “Selectivity hEP2/hDP” value in assay [2] is “xxx (xxx > 100)”. In assay [3], the IC50 worked out at 4.74 nM.
With `Cc1ccc(-c2ccc(C(=O)N3CCC(Cn4cc5c(C)c(C(=O)NCC(F)(F)F)ccc5n4)CC3)cc2)nc1` [Example 324, 4-methyl-2-({1-[4-(5-methylpyridin-2-yl)benzoyl]piperidin-4-yl}methyl)-N-(2,2,2-trifluoroethyl)-2H-indazol-5-carboxamide], the “Selectivity hEP2/hEP4” value in assay [1] was “xx (xx: 10-100)”. Moreover, the “Selectivity hEP2/hDP” value in assay [2] was “xx (xx: 10-100)”. The IC50 in assay [3] was found to be 460 nM.
Consider `COCCNC(=O)c1ccc2nn(CC3CCN(C(=O)c4ccc(-c5ccc(Cl)cn5)cc4)CC3)cc2c1C` [Example 368, 2-({1-[4-(5-chloropyridin-2-yl)benzoyl]piperidin-4-yl}methyl)-N-(2-methoxy-ethyl)-4-methyl-2H-indazol-5-carboxamide], for which, in assay [1], the “Selectivity hEP2/hEP4” value is “xxx (xxx > 100)”. Further, in assay [2], the “Selectivity hEP2/hDP” value is reported as “xxx (xxx > 100)”. Further, the IC50 in assay [3] was found to be 12 nM.
Consider `O=C(NCCOCC1CC1)c1ccc2nn(CC3CCN(C(=O)c4ccc(Cl)cc4)CC3)cc2c1OC(F)F` [Example 229, 2-{[1-(4-chlorobenzoyl)piperidin-4-yl]methyl}-N-[2-(cyclopropylmethoxy)-ethyl]-4-(difluoromethoxy)-2H-indazol-5-carboxamide], for which the “Selectivity hEP2/hEP4” value in assay [1] was “xxx (xxx > 100)”. Besides, the “Selectivity hEP2/hDP” value in assay [2] is reported as “xxx (xxx > 100)”. In assay [3], the IC50 stood at 10.2 nM.
As to `Cc1c(C(=O)NCC(F)(F)F)ccc2nn(CC3CN(C(=O)c4cc5cc(F)ccc5n4C)C3)cc12` [Example 167, 2-({1-[(5-fluoro-1-methyl-1H-indol-2-yl)carbonyl]azetidin-3-yl}methyl)-4-methyl-N-(2,2,2-trifluoroethyl)-2H-indazol-5-carboxamide], the “Selectivity hEP2/hEP4” value in assay [1] is recorded as “xxx (xxx > 100)”. Also, in assay [2], the “Selectivity hEP2/hDP” value is listed as “xxx (xxx > 100)”. Besides, in assay [3], the IC50 is 13.5 nM.
Turning to `COCCNC(=O)c1cc2cn(CC3CCN(C(=O)c4cn(C)c5ccccc45)CC3)nc2cc1C` [Example 281, N-(2-methoxyethyl)-6-methyl-2-({1-[(1-methyl-1H-indol-3-yl)carbonyl]-piperidin-4-yl}methyl)-2H-indazol-5-carboxamide], the “Selectivity hEP2/hEP4” value in assay [1] was “xxx (xxx > 100)”. In assay [2], the “Selectivity hEP2/hDP” value is on record as “xxx (xxx > 100)”. Moreover, the IC50 in assay [3] turned out to be 23 nM.
As for `COCCNC(=O)c1ccc2nn(CC3CN(C(=O)c4ccc(C(F)(F)F)c(F)c4)C3)cc2c1C` [Example 122, 2-({1-[3-fluoro-4-(trifluoromethyl)benzoyl]azetidin-3-yl}methyl)-N-(2-methoxy-ethyl)-4-methyl-2H-indazol-5-carboxamide], the “Selectivity hEP2/hEP4” value in assay [1] is “xxx (xxx > 100)”. In addition, in assay [2], the “Selectivity hEP2/hDP” value is “xxx (xxx > 100)”. Further, in assay [3], the IC50 stood at 28.6 nM.
For `Cc1c(C(=O)NCCS(C)(=O)=O)ccc2nn(CC3CCN(C(=O)c4ccc(-c5ccc(F)cc5)cc4)CC3)cc12` [Example 408, 2-({1-[(4′-fluorobiphenyl-4-yl)carbonyl]piperidin-4-yl}methyl)-N-(2-mesylethyl)-4-methyl-2H-indazol-5-carboxamide], the “Selectivity hEP2/hEP4” value in assay [1] is given as “xxx (xxx > 100)”. Further, in assay [2], the “Selectivity hEP2/hDP” value is on record as “xxx (xxx > 100)”. Also, the IC50 in assay [3] came to 23.5 nM.
`Cc1c(C(=O)NCCOC(C)(C)C)ccc2nn(CC3CCN(C(=O)c4ccc(Cl)cc4)CC3)cc12` [Example 111, N-(2-tert-butoxyethyl)-2-{[1-(4-chlorobenzoyl)piperidin-4-yl]methyl}-4-methyl-2H-indazol-5-carboxamide]: the “Selectivity hEP2/hEP4” value in assay [1] was “xxx (xxx > 100)”. Moreover, in assay [2], the “Selectivity hEP2/hDP” value is on record as “xxx (xxx > 100)”. In assay [3], the IC50 was 13.7 nM.
As to `COCCNC(=O)c1ccc2nn(CC3CCN(C(=O)c4ccc(-c5ccc(F)cc5)cc4)CC3)cc2c1OC(F)F` [Example 227, 4-(difluoromethoxy)-2-({1-[(4′-fluorobiphenyl-4-yl)carbonyl]piperidin-4-yl}methyl)-N-(2-methoxyethyl)-2H-indazol-5-carboxamide], the “Selectivity hEP2/hEP4” value in assay [1] is reported as “xxx (xxx > 100)”. Further, the “Selectivity hEP2/hDP” value in assay [2] is on record as “xxx (xxx > 100)”. The concentration for half-maximal inhibition (IC50) in assay [3] turned out to be 9.89 nM.
Consider `O=C(NCCOCC1CC1)c1ccc2nn(CC3CCN(C(=O)c4ccc(-c5ccc(F)cc5)cc4)CC3)cc2c1OCC(F)(F)F` [Example 237, N-[2-(cyclopropylmethoxy)ethyl]-2-({1-[(4′-fluorobiphenyl-4-yl)carbonyl]piperidin-4-yl}methyl)-4-(2,2,2-trifluoroethoxy)-2H-indazol-5-carboxamide], for which, in assay [1], the “Selectivity hEP2/hEP4” value was “xxx (xxx > 100)”. For the same compound, the “Selectivity hEP2/hDP” value in assay [2] is “xxx (xxx > 100)”. Moreover, the IC50 in assay [3] worked out at 31 nM.
With `COCCNC(=O)c1ccc2nn(CC3CCN(C(=O)c4ccc(-c5cnco5)cc4)CC3)cc2c1C` [Example 36, N-(2-methoxyethyl)-4-methyl-2-({1-[4-(oxazol-5-yl)-benzoyl]piperidin-4-yl}methyl)-2H-indazol-5-carboxamide], the “Selectivity hEP2/hEP4” value in assay [1] is listed as “xxx (xxx > 100)”. Moreover, the “Selectivity hEP2/hDP” value in assay [2] is listed as “xxx (xxx > 100)”. Also, the IC50 in assay [3] was determined as 61.6 nM.
Take `Cc1c(C(=O)NCC(F)(F)F)ccc2nn(CC3CCN(C(=O)c4ccc(Oc5cccc(C(F)(F)F)n5)cc4)CC3)cc12` [Example 304, 4-methyl-N-(2,2,2-trifluoroethyl)-2-{[1-(4-{[6-(trifluoromethyl)pyridin-2-yl]-oxy}benzoyl)piperidin-4-yl]methyl}-2H-indazol-5-carboxamide]: in assay [1], the “Selectivity hEP2/hEP4” value was “xxx (xxx > 100)”. Further, in assay [2], the “Selectivity hEP2/hDP” value is listed as “xxx (xxx > 100)”. Also, in assay [3], the IC50 is 99.8 nM.
With `COCCNC(=O)c1ccc2nn(CC3CN(C(=O)c4ccc(Oc5ccc(F)cc5)cc4)C3)cc2c1C` [Example 159, 2-({1-[4-(4-fluorophenoxy)benzoyl]azetidin-3-yl}methyl)-N-(2-methoxyethyl)-4-methyl-2H-indazol-5-carboxamide], the “Selectivity hEP2/hEP4” value in assay [1] is recorded as “xxx (xxx > 100)”. Moreover, the “Selectivity hEP2/hDP” value in assay [2] was “xxx (xxx > 100)”. The IC50 in assay [3] came to 6.24 nM.
Take `Cc1ncc(-c2ccc(C(=O)N3CCC(Cn4cc5c(C)c(C(=O)NCC(F)(F)F)ccc5n4)CC3)cc2)cn1` [Example 327, 4-methyl-2-({1-[4-(2-methylpyrimidin-5-yl)benzoyl]piperidin-4-yl}methyl)-N-(2,2,2-trifluoroethyl)-2H-indazol-5-carboxamide]: the “Selectivity hEP2/hEP4” value in assay [1] is “xx (xx: 10-100)”. For the same compound, in assay [2], the “Selectivity hEP2/hDP” value is “xx (xx: 10-100)”. The IC50 in assay [3] amounted to 1210 nM.
Turning to `COCCNC(=O)c1ccc2nn(CC3CCN(C(=O)c4ccc(-c5ccc(Cl)cc5F)cc4)CC3)cc2c1C` [Example 383, 2-({1-[(4′-chloro-2′-fluorobiphenyl-4-yl)carbonyl]piperidin-4-yl}methyl)-N-(2-methoxyethyl)-4-methyl-2H-indazol-5-carboxamide], the “Selectivity hEP2/hEP4” value in assay [1] is “xxx (xxx > 100)”. The “Selectivity hEP2/hDP” value in assay [2] is reported as “xxx (xxx > 100)”. Besides, in assay [3], the IC50 was found to be 5.78 nM.

The record behind these values is patent publication US9062041B2 (Bayer Intellectual Property GmbH, priority 2011, dated 2015).
